# How the values were obtained:
# Format in all cases: in vivo, C57/BL6 mice
# [1] = Study 2: body weight gain in mice on standard laboratory diet, 10 then 50 mg/kg DBPs; conditions: for less body weight gain / less gain in body weight: 10 mg/kg b.w.; for less body weight gain: at 8 weeks; for less gain in body weight: at four weeks; for less weight gain: 3 weeks after increasing the dose to 50 mg/kg b.w. (from 13th week)
# Experimental: Since the results from Study 1 were totally unexpected, Study 2 was carried out in order to validate the results from Study 1 and also to determine if another bioactive of Shilajit, 3-hydroxy-dibenzo-α-pyrone, may have a similar beneficial effect on controlling body weight gain. Study 2 was carried out under similar experimental conditions as Study 1, using standard laboratory diet, except that a 10 mg/kg body weight dose was administered for the first 12 weeks and then the dose was increased to 50 mg/kg body weight from the 13th week through the 19th week. The primary purpose of increasing the dose is to find out if the response is dose proportional. […] It is interesting to note that 3 weeks after increasing the dose of DBPs to 50 mg/kg b.w., 3-OH-DBP group still maintained about 45% less weight gain while the 3,8-(OH)2-DBP group retained only about 10% less weight gain. […] The secondary purpose of increasing the dose is to find out if increased dose is toxic. Different tissues were collected from the mice and toxicological examination will be conducted.
# [2] = Study 1: body weight gain in mice on standard laboratory diet, 12 weeks intragastric supplementation
# Source text: Materials Used: Shilajit (PrimaVie®, Natreon, Inc., New Brunswick, N.J.), a standardized dietary supplement ingredient extracted and processed from Shilajit bearing rocks, containing not less than about 50% by weight fulvic acids (FAs), at least about 10% by weight dibenzo-α-pyrone chromoproteins, and at least 0.3%, or more, by weight total dibenzo-α-pyrones (DBPs), 3-OH-DBP (99.0% purity, Natreon, Inc.), and 3,8-(OH)2-DBP (99.0% purity, Natreon, Inc) were used.
# Three groups of adult C57/BL6 mice (n=8) were intragastrically supplemented with purified Shilajit (PS), 3,8-dihydroxy-dibenzo-α-pyrone (3,8-(OH)2-DBP) or placebo for 12 weeks. Body weight was measured every week. At the end of week 12, skeletal muscle tissue was harvested for gene profiling. Some tissue was stored for histology and HPLC analysis.
# The control group of mice received DMSO in corn oil while the PS group received 100 mg of purified Shilajit/kg body weight of mice, dissolved in water and the DBP group received 10 mg of 3,8-(OH)2-DBP/kg body weight of mice, dissolved in DMSO/corn oil.
# At week 12, the following tissues were collected: heart, lung, liver, brain, muscles, adipose tissue, skeletal muscle (vastus lateralis) and whole blood.
# [3] = Study 3: body weight gain in mice on high fat diet, later switched to standard diet; conditions: starting at 14 weeks, after switching to standard laboratory diet
# Experimental: Since the Studies 1 and 2 were carried out with standard laboratory diet, it was imperative to do a study with high fat diet fed mice. Study 3 was conducted using such a diet (Bio-Serve Cat# 534282, 36% fat). After 11 weeks, the high fat diet was replaced with the standard laboratory diet. […] However, starting at 14 weeks after switching to the standard laboratory diet, there is a trend in both the DBP groups for less weight gain compared to the placebo group. […] Thus, it is possible that the DBPs, especially the 3-OH-DBP, may have the potential to control body weight gain in individuals on fatty diet as well, though at a slower pace than in individuals on normal diet.
Structure (SMILES),less body weight gain [1],less gain in body weight [1],less weight gain [1],"weight gained in 90 days ([2]; 10 mg/kg body weight in DMSO/corn oil, intragastric, standard laboratory diet, 90 days)","overt signs of health compromise ([2]; 10 mg/kg body weight, 12 weeks)",age-dependent gain in body weight ([2]; standard laboratory diet/conditions),trend for less weight gain compared to placebo [3]
"O=c1oc2cc(O)ccc2c2ccc(O)cc12 [3,8-(OH)2-DBP, 3,8-dihydroxy-dibenzo-α-pyrone]",about 50%,~40%,about 10%,about 7.5%,no overt signs of health compromise,significant decrease,
"O=c1oc2cc(O)ccc2c2ccccc12 [3-OH-DBP, 3-hydroxy-dibenzo-α-pyrone]",about 50%,about 45%,about 45%,,,,especially prominent

# — patent US9901596B2, “Regulation of body weight gain by using dibenzo-alpha-pyrones” (Natreon, Inc., priority 2013, dated 2018)
